From PubChem BioAssay (NCI) come the findings set out here.

What all share (experiment): NCI tumour cell line growth inhibition, 48 h
The subject of assay [1] is MDA-MB-231 breast.
The subject of assay [2] is HS 578T breast.
Assay [3] concerns A498 renal.
The subject of assay [4] is NCI-H226 lung.
For assay [5], the system named is HOP-92 NSCLC.
In assay [6] the test system is HOP-62 NSCLC.
Assay [7] relates to MALME-3M melanoma.
For assay [8], the system named is SW-620 colon.
The test system of assay [9] is CAKI-1 renal.
In assay [10] the test system is EKVX NSCLC.

The structures appear in SMILES notation.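 48-hour exposure; five concentrations; linearly interpolated endpoints. The concentration for 50% growth inhibition is given as GI50. TGI is the concentration that stops growth completely.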 Where only a bound is given, the exact number is not on record here.

Regarding `COc1ccc(-c2nc(N3CCOCC3)c3sc(CN(C)c4ncc(C(=O)NO)cn4)cc3n2)cn1`, the GI50 in [1] was 0.0282 µM; in [2], less than 0.0122 µM; in assay [3] it was less than 0.0155 µM; in assay [4], 0.0112 µM; in assay [5], 0.0147 µM; in assay [6], less than 0.0106 µM. The results for the GI50 in [7], in [8] and in [9] were less than 0.01 µM, less than 0.01 µM and 0.0176 µM, respectively. The TGI stood at 0.331 µM in assay [1]; 0.155 µM in assay [2]; 0.0544 µM in assay [3]; 1.13 µM in assay [4]; 0.0508 µM in [5]; 0.123 µM in assay [6]. Besides, the results for the TGI in [7], in assay [8] and in assay [9] were 0.0352 µM, 1.41 µM and 0.0436 µM, respectively.
For `COc1cccc(Cn2c(-c3nonc3NC(C)=O)nc3ccccc32)c1`, the GI50 in assay [1] was 3.62 µM; in [2] it was 1.87 µM; in assay [3], 0.426 µM; in assay [4], 5.46 µM; in assay [5] it was 2.16 µM; in assay [6], 8.53 µM. The GI50 was 3.31 µM in assay [7], 3.08 µM in assay [8] and 2.05 µM in assay [9]. Besides, the TGI in [1] was more than 100 µM; in assay [2], 7.24 µM; in assay [3] it was 6.53 µM; in assay [4], more than 100 µM; in [5], 17.6 µM; in assay [6] it was more than 100 µM. In addition, the TGI in assay [7] is 43.8 µM; in assay [8], more than 100 µM; in [9] it was more than 100 µM.
In the case of `Cc1nn(-c2ccccc2)c2nc3c(nc12)C1=NCCN1C(c1ccc(Cl)cc1)N3` (stereo not given), the GI50 in [1] was 1.81 µM; in [2], 3.1 µM; in [3] it was 4.01 µM; in [4], 5.04 µM; in assay [5] it was 2 µM; in assay [6], 3.26 µM. In addition, the GI50 was 2.18 µM in [7], 1.9 µM in [8] and 13.2 µM in [9]. Besides, the TGI worked out at 4.95 µM in assay [1]; 12.8 µM in [2]; 17.9 µM in assay [3]; 14.4 µM in assay [4]; 9.69 µM in [5]; 8.31 µM in assay [6]. The TGI worked out at 4.12 µM in assay [7], 3.96 µM in assay [8] and 27.3 µM in assay [9].
On to `Oc1ccc(-c2cn3cc(Cl)sc3n2)cc1`, for which the GI50 in assay [1] is more than 100 µM; in assay [2] it was more than 100 µM; in assay [3], 57.5 µM; in assay [4], 5.49 µM; in [6], more than 100 µM; in [10], 47.6 µM. For the same compound, the results for the GI50 in assay [8] and in assay [9] were 56.9 µM and 41.5 µM, respectively. For the same compound, the TGI in [1] was more than 100 µM; in assay [2], more than 100 µM; in assay [3] it was more than 100 µM; in assay [4], 48.5 µM; in assay [6], more than 100 µM; in assay [10], more than 100 µM. The TGI in assay [8] and in assay [9] was more than 100 µM in each case.
Turning to `COc1cc(-n2cnc(-c3ccc(Cl)cc3)c2)cc(OC)c1OC`, the GI50 in [1] was 85.7 µM; in [2], 49.2 µM; in assay [3] it was 14.2 µM; in [4], more than 100 µM; in [6], 24.1 µM; in assay [10], more than 100 µM. For the same compound, the GI50 was 16.1 µM in assay [7], more than 100 µM in assay [8] and 24.9 µM in assay [9]. Moreover, the TGI in assay [1] is more than 100 µM; in [2], more than 100 µM; in [3], 31.6 µM; in assay [4], more than 100 µM; in assay [6], 71.5 µM; in [10], more than 100 µM. Also, the TGI was 32.9 µM in assay [7], more than 100 µM in assay [8] and more than 100 µM in [9].
As for `CC1(C)N=C(N)N=C(N)N1c1cccc(CCCCOc2ccccc2)c1`, the GI50 in assay [1] was 0.881 µM; in assay [2], 10.2 µM; in assay [3], 1.8 µM; in [4], 0.801 µM; in [5], 2.26 µM; in assay [6] it was 0.663 µM. The values for the GI50 in assay [7], in assay [8] and in assay [9] were 7.22 µM, 0.0164 µM and 2.7 µM, respectively. The TGI in [1] was 48.6 µM; in assay [2], 37.3 µM; in assay [3], more than 81.3 µM; in assay [4], more than 100 µM; in assay [5], 30.3 µM; in assay [6] it was more than 87.1 µM. Besides, the TGI in [7] is 29.8 µM; in [8], more than 100 µM; in assay [9] it was more than 100 µM.
On to `N#C/C(=C1C=C/C(=N\O)C(Cl)=C\1)c1ccccc1`, for which the GI50 in assay [1] was 2.26 µM; in assay [2], 3.58 µM; in assay [3] it was 3.34 µM; in [4], 3.13 µM; in assay [6] it was 1.91 µM; in assay [7], 7.35 µM. The GI50 is 1.42 µM in assay [8] and 1.68 µM in assay [9]. In addition, the TGI in [1] came out at 6.7 µM; in [2], 38.5 µM; in assay [3], 64.7 µM; in assay [4], 12.4 µM; in [6], 13 µM; in assay [7], 29.9 µM. In addition, the results for the TGI in assay [8] and in assay [9] were 12.9 µM and 21.3 µM, respectively.
In the case of `O=C(Cc1ccccc1)NC(c1ccc(Cl)cc1)c1c(O)ccc2ccccc12` (stereo not given), the GI50 in assay [1] is 1.98 µM; in assay [2], 2.81 µM; in [3] it was 0.985 µM; in [4] it was 3.15 µM; in assay [5], 2.77 µM; in assay [6], 2.84 µM. Moreover, the GI50 in assay [7] is 2.69 µM; in assay [8], 3.22 µM; in assay [9], 2.52 µM. The TGI in assay [1] turned out to be 4.73 µM; in assay [2] it was 13.8 µM; in [3], 7.72 µM; in [4], 12 µM; in [5], 7.24 µM; in [6], 8.57 µM. In addition, the TGI in assay [7] was 8.22 µM; in assay [8] it was 13.4 µM; in assay [9], 10.2 µM.
